Laboratory results taken from patent US6610289B2, “Mutated herpes simplex virus type 1 thymidine kinases and uses thereof” (The Board of Trustees of the University of Arkansas, priority 1998, dated 2003).

Tests used:
Format in all cases: cell-based, human
HCT-116 cells [1] = assay: Cell cycle analysis of GCV treated cells (propidium iodide flow cytometry); conditions: +GCV 25 μM, 24 hours, HCT-116 expressing the TK
Protocol: Parental HCT-116 cells and each HSV-1 TK expressing cell line were grown to 60% confluency in 25 cm^2 flasks and treated for 24 hours minus (−GCV, panels A, C, E and G) or plus (+GCV, panels B, D, F and H) 25 μM GCV. Cells were fixed in 70% ethanol overnight, and later incubated with RNAase (0.1%) and propidium iodide (1 mg/ml) for […] on ice. Flow cytometry measuring propidium iodide fluorescence was done with a Becton-Dickinson FACScalibur instrument using MODFIT computer software. FIGS. 6A and 6B: HCT-116 cells; FIGS. 6C and 6D: wild-type HSV-1 TK cells; FIGS. 6E and 6F: Asn-125TK cells, FIGS. 6G and 6H: Glu-125TK cells.
Parental HCT-116 cells and each HSV-1 TK expressing cell line were grown to 60% confluency in 25 cm^2 flasks and treated for 24 hours plus or minus 25 μM GCV. Following drug incubation, cells were removed by trypsin and total cell numbers determined. Following two phosphate buffered saline rinsing and centrifugation cycles, the cell pellets were resuspended in 1 ml of 70% ethanol and stored at 4° C. until further analysis. Just prior to cell cycle analysis, the ethanol was removed and cell pellets were resuspended in phosphate-buffered saline plus RNAase (0.1%) and propidium iodide (1 mg/ml) for 30 minutes on ice. Flow cytometry measuring propidium iodide fluorescence was done with a Becton-Dickinson FACScalibur instrument. Cell cycle distribution of the cells were determined using MODFIT computer software
GCV has also been previously reported to induce S and G2-M phase cell cycle arrest in HSV-1 TK expressing glioma and melanoma cell lines (36-38). Therefore, the effect of 24 hr GCV treatment on the cell cycling of parental and the three HSV-1 TK-expressing cell lines was examined by flow cytometry of propidium iodide stained cells. As shown in FIGS. 6A and 6B and Table 5, GCV treatment of HCT-116 parental, non-HSV-1 TK-expressing cells had little effect on the percentage of cells in each phase of the cell cycle as compared with untreated cells. In the wild-type and Asn-125TK-expressing cell lines, GCV treatment (FIGS. 6D and 6F) led to an increase in the proportion of cells in the S-phase, and undetectable percentages in G2-M phase when compared to untreated cultures (FIGS. 6C and 6E). For the Glu-125TK-expressing cells, over 50% of the GCV treated cells were in S-phase and less than 3% were in G2-M (FIG. 6H).

HCT-116 cells [2] = assay: Clonal dilution assay for GCV sensitivity; conditions: for Decrease in cell colony numbers: 24 hours, FIG. 4
Protocol: Parental HCT-116 (large square), wild-type HSV-1 TK cells (triangle), Asn-125TK cells (small square) and Glu-125TK cells (diamond) were treated with 0, 0.1, 1 or 10 μM GCV in triplicate for 24 hours. After this time, each well of cells was sequentially diluted from 1:10 to 1:10,000 in 1 ml of fresh media on a separate 24 well plate. After 7 days, surviving cell colonies were fixed in 100% methanol, stained with 0.1% methylene blue and counted.
For determination of GCV sensitivity, parental HCT-116 and each HSV-1 TK expressing cells were seeded in 24 well plates (2×10^5/well) in 1 ml of media. The next day, 0, 0.1, 1 or 10 μM GCV was added to each cell line in triplicate. After 24 hours, for each well the media was removed, cells were rinsed twice in fresh media, trypsinized, then media was added to 1 ml per well. Each well of cells was then sequentially diluted from 1:10 to 1:10,000 in 1 ml of fresh media on a separate 24 well plate. After 7 days, surviving cell colonies were fixed in 100% methanol, stained with 0.1% methylene blue and counted. For bystander effect assays, each of the three HSV-1 TK expressing cell lines were plated with parental HCT-116 cells (total 2×10^5/well) in the following proportions: (parental: HSV-1TK cells) 100%:0; 95%:5%; 90%:10%; 75%:25%; 50%:50% and 0:100%. After two days, 25 μM GCV was added in 1 ml fresh media. After 24 hrs, the media was removed and cells from each well were diluted from 1:10 to 1:10,000 as described above. After 7 days, surviving cell colonies were fixed and stained for counting.
Cells previously plated in 24 well plates were treated with GCV (0-10 μM) in triplicate for 24 hours. Following drug removal, cells were diluted and replated in fresh media from dilutions of 1:10 to 1:10,000. Surviving cell colonies were counted 6-7 days later.

HCT-116 cells [3] = assay: Metabolic labeling with [^3H]GCV, [^3H]thymidine, [^3H]dC, HCT-116 cell clones; conditions: for Phosphorylated metabolite GCVDP / Phosphorylated metabolite GCVMP / Phosphorylated metabolite GCVTP: 116; for Phosphorylated metabolite TMP / Phosphorylated metabolite TTP: 116, [^3H]thymidine labeled
Protocol: For metabolic labeling, cells (1-2×10^6) were labeled in triplicate with 2 μCi [^3H]GCV ([…]) for 18 hours, then nucleotides were extracted from pelleted cells in 0.2 ml 70% methanol at 4° C. for 15 minutes as previously described (21, 24). An aliquot of each methanol soluble supernatant was analyzed for radioactivity by scintillation counting. The methanol insoluble pellets, representative of a crude DNA fraction, were resuspended in 0.15 ml water and also counted for radioactivity. For deoxpyrimidines, cells were grown to confluency in 60 cm^2 plates, and either 2 μCi [^3H]thymidine (2 μM final) or 2 μCi [^3H]dC (10 μM final) were added for 1 or 2 hours respectively prior to extraction in 70% methanol. Methanol-soluble extracts were concentrated by evaporation under nitrogen, and separated on PEI-cellulose thin layer chromatography plates developed in 0.8 M LiCl for GCV or 0.35 M LiCl for thymidine/dC as previously described (21).
NIH3T3 fibroblasts and the human tumor cell line HCT-116 were transfected with wild-type HSV-1TK or with one of three site specific mutants of amino acid Gln-125. From a panel of multiple HSV-1TK expressing clones, a subset of clones from each cell line expressing wild-type HSV-1 TK, the Asn-125 HSV-1 TK mutant (Asn-125TK) and the Glu-125 HSV-1 TK mutant (Glu-125TK) were selected for comparatively equivalent levels of HSV-1 TK protein expression based on Western blot determinations. In this study, these two sets of HSV-1 TK-expressing NIH 3T3 and HCT-116 cell lines were evaluated for intracellular metabolism of [^3H]GCV, [^3H]thymidine, or [^3H]dC. Cells were labeled with [^3H]GCV for 18 hours, then nucleotides were extracted in ice-cold 70% methanol as previously described (21, 24). The data in Table 3 summarize the amount of total nucleotide metabolites isolated in the methanol-soluble extracts (pmol/10^6 cells) as well as the total amount of methanol-insoluble metabolites representative of incorporation into DNA.
The methanol-soluble metabolites were further separated into their constituent phosphorylated GCV metabolites by thin layer chromatography (21).
Cells were grown to confluency and labeled with either [^3H]thymidine or [^3H]dC for 1 or 2 hours respectively prior to methanol extraction.

| Substance | Cell cycle phase G0/G1 (HCT-116 cells [1]) [%] | Cell cycle phase S (HCT-116 cells [1]) [%] | Decrease in cell colony numbers (HCT-116 cells [2]; 0.1 μM GCV) | Decrease in cell colony numbers (HCT-116 cells [2]; 10 μM GCV) [log] | Phosphorylated metabolite GCVDP (HCT-116 cells [3]) [pmol/10^6 cells] | Phosphorylated metabolite GCVMP (HCT-116 cells [3]) [pmol/10^6 cells] | Phosphorylated metabolite GCVTP (HCT-116 cells [3]) [pmol/10^6 cells] | Phosphorylated metabolite TMP (HCT-116 cells [3]) [pmol/10^6 cells] | Phosphorylated metabolite TTP (HCT-116 cells [3]) [pmol/10^6 cells] | Cell cycle phase G2/M (HCT-116 cells [1]) | Cell cycle phase G2/M (HCT-116 cells [1]; listed as WTGln-125TK) [%] | Decrease in cell colony numbers (HCT-116 cells [2]; 1 μM GCV) [log] | Reduction in cell colony numbers (HCT-116 cells [2]; 20-110 μM GCV (data not shown)) | Decrease in GCVTP levels (HCT-116 cells [3]; HCT-116 cells, compared to wild-type and Asn-125TK cells) [fold] |
| --- | --- | --- | --- | --- | --- | --- | --- | --- | --- | --- | --- | --- | --- | --- |
| Asn-125 | 70.0 | 30.0 | 2 log | 4 | 104 | 95 | 533 | 0.2 | 0.9 |  |  |  |  |  |
| Gln-125 (WT): wild-type herpes simplex virus type 1 thymidine kinase with glutamine at position 125, parent enzyme [reference compound] | 60.1 | 39.9 | 2 log | 4 | 101 | 96 | 415 | 1.2 | 9.5 | undetectable | 0 |  |  |  |
| Glu-125 | 39.0 |  | no reduction | 2.5 | 2.5 | 3.0 | 18 | 0.2 | 0.4 |  |  | 0.7 | over 3 log | ≥ 23 |
